Laboratory results reported in patent US9610359B2, “Methods and compositions related to annexin 1-binding compounds” (Burnham Institute for Medical Research, priority 2009, dated 2017).
“Also recorded” adds a separate entry of the source. Residues, ends and D or L forms follow the SMILES beside them. No end group written: not given here.

Assays:
[1] = target: T1, Anxa1-His protein (Homo sapiens, UniProt P04083); assay: isothermal titration calorimetry (ITC) with Anxa1-His protein; format: binding; details: 23° C., 20 mM Tris pH 7.9, 250 mM NaCl, 1 mM CaCl2, 10% dimethylsulfoxide; average n=4, two Anxa1-His preparations
T1 construct: Full-length cDNA encoding Anxa1 was obtained from Invitrogen (Carlsbad, Calif.) and subcloned into pET29a vector; His6 (C); made in house; host or cells: bacteria (pET29a vector, Novagen)
T1 sequence (P04083 1-346): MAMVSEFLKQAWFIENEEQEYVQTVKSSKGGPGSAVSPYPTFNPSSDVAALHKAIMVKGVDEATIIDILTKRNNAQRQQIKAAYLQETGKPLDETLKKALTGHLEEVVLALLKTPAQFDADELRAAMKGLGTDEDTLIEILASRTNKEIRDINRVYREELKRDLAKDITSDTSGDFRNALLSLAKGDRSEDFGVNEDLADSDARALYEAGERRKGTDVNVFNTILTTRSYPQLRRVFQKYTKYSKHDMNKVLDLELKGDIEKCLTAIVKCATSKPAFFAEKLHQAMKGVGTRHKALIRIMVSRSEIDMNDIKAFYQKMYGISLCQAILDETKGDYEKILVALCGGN
Experimental: ITC was performed on a VP-ITC calorimeter from Microcal (Northampton, Mass.). In this analysis IF7K3C peptide or […] (SEQ ID NO:12), in which IF7 was modified by inserted with three lysine residues between IF7 and C to increase solubility in water. Eight μl aliquots of solution containing 1.0 or 1.5 mM were injected into the cell containing 100 or 150 μM Anxa1-His protein. In each experiment 37 injections were made. The experiments were performed at 23° C. in buffer containing 20 mM Tris pH 7.9, 250 mM NaCl, 1 mM CaCl2 and 10% dimethylsulfoxide. Experimental data were analyzed using Microcal Origin software provided by the ITC manufacturer (Microcal, Northampton, Mass.).

[2] = test system: Mouse melanoma B16F1 tumors; format: in vivo; details: B16 melanoma, 0.13 μmoles iv
Experimental: (a) Mouse melanoma B16F1 tumors were grown subcutaneously in C57BL6 mice. On day 10, each mouse was injected intravenously with either 100 μl of 5% glucose or that containing 0.13 μmoles of each IF7, GA, or IF7-GA. Injections were administered every other day, for a total of three injections, until day 14. […] B, Histochemistry of tumors from the mice intravenously injected with the compounds described in A. Apoptotic tumor cells along blood vessels in transplanted tumors are detected by TUNEL assay. B16 melanoma (a), LLC lung carcinoma (b), PC3 prostate tumor (c) and MDA-MB-231 breast tumor (d) from mice treated with each compound.
Injections were administered every other day, for a total of 7 injections, until day 26, as shown by arrows.

[3] = test system: Mouse Lewis lung carcinoma (LLC) tumors; assay: subcutaneous Lewis lung carcinoma tumor model; format: in vivo; details: 0.13 μmoles iv
Experimental: (§1) FIGS. 6A and 6B show the effect of IF7-GA on melanoma, lung carcinoma, prostate cancer, and breast cancer mouse models. A, Effect of IF7-GA on tumor size. […] Mice were euthanised on day 15 to measure tumor weight. […] Mice were euthanised on day 13 and tumors weighed. (c) Human prostate cancer PC3 tumors were grown orthotopically in the prostate of SCID mice. On day 7, each mouse was injected intravenously with the compounds as in A-a, and injections administered every 4 days, for a total of four injections, until day 22. Mice were euthanised on day 28 and tumors weighed. (d) Human breast cancer MDA-MB-231 tumors were grown orthotopically in fat pads of SCID mice. On day 7, each mouse was injected intravenously with the compounds as in A-a, and injections performed every 4 days, for a total of four injections, until day 22. […] B, Histochemistry of tumors from the mice intravenously injected with the compounds described in A. Apoptotic tumor cells along blood vessels in transplanted tumors are detected by TUNEL assay. […]
(§2) Mouse melanoma B16F1 cells (2×10^5 cells/100 μl serum-free DMEM) were injected subcutaneously into the dorsal flank of C57BL/6 female mice (8-10 weeks old). […] On day 15, mice were sacrificed and tumor weights determined. […] On day 13, mice were sacrificed and tumor weights determined. […] On day 28, mice were sacrificed and prostate tumor weights determined. […]

[4] = test system: Human prostate cancer PC3 tumors; assay: orthotopic PC3 prostate cancer model in SCID mice; format: in vivo; details: 0.13 μmoles iv
Experimental: as §1, §2

[5] = test system: Human breast cancer MDA-MB-231 tumors; assay: orthotopic MDA-MB-231 breast cancer model in SCID mice; format: in vivo; details: MDA-MB-231 breast tumor, 0.13 μmoles iv
Experimental: as §1, §2

[6] = body weights, blood cell counts and blood chemistry of treated nude mice; format: in vivo, mouse; details: daily injection for 10 days, versus no drug injection
Description: FIGS. 15A, 15B and 15C show body weights (A), blood cell counts (B), and blood chemistry (C) of the nude mice treated with IF7C(RR)-SN38 and RQ7C(RR)-SN38 daily injection for 10 days.

[7] = target: T2, Anxa1-His6 protein (Homo sapiens, UniProt P04083); assay: inhibition of binding of FITC-labeled polyacrylamide-LeA oligosaccharide to Anxa1-His6
T2 construct: Full-length cDNA encoding Anxa1 was obtained from Invitrogen (Carlsbad, Calif.) and subcloned into pET29a vector; His6 (C); made in house; host or cells: bacteria (pET29a vector, Novagen)
T2 sequence (P04083 1-346): T1 sequence (P04083 1-346)
Description: (§3) FIGS. 1A-1H show the essential role of annexin 1 (Anxa1) in tumor growth and identification of a peptide sequence with tumor vasculature targeting activity in vivo. A and B. Growth of B16 tumors subcutaneously injected into Anxa1(+/−) and Anxa1(−/−) mutant mice. C. Histology of B16 tumors produced in Anxa1(+/−) and Anxa1(−/−) mice. Each scale bar represents 2.00 mm. D. Immunohistochemistry of B16 tumors for CD31 showing endothelial cells and vasculature. Each scale bar represents 200 μm. E. In vivo phage targeting in B16 tumor-bearing mice. Numbers of transformed colonies recovered from the tumor or lung were determined. […] F. In vivo tumor and organ targeting activity of IFLLWQR (SEQ ID NO:2) displaying phage. Phage was injected into B16 tumor bearing mice pre-injected with anti-Anxa1 antibody or with control rabbit IgG. G. In vitro plate assay for binding of IF7-A488 (upper line) and control RQ7-A488C (lower line) to recombinant […] protein produced by bacteria. H. Effect of IF7 (upper line) and control RQ7 (lower line) on binding of FITC-labeled polyacrylamide-LeA oligosaccharide to Anxa1-His6 protein.
(§4) Full-length cDNA encoding Anxa1 was obtained from Invitrogen (Carlsbad, Calif.) and subcloned into pET29a vector (Novagen) to produce an […] fusion protein. […] After washing the plate, fluorescence was measured by a Molecular Devices Analyst HT plate reader. […]

[8] = target: T2, Anxa1-His6 protein; assay: in vitro plate assay for binding to recombinant Anxa1-His6 protein; details: 4 μg/ml, Tris-HCl pH7.4, 1 mM CaCl2, 0.05% Tween 20
Description: as §3, §4

[9] = test system: Lewis lung carcinoma (LLC) tumors; assay: in vivo imaging of tumor targeting in dorsal skinfold chamber; design: species or system mouse; details: for vascular staining in tumor tissue sections: 20 min after injection
Experimental: (A) Lewis lung carcinoma (LLC) tumors were allowed to vascularize for 3 days in dorsal skinfold chamber window in nude mice. Mice were injected with 100 μl of 50 μM IF7-A488 (row a) or RQ7-A488 (row b) in 5% glucose in water. IF7-A488 was also injected to tumor-bearing mice pre-injected with rabbit IgG (row c) or with rabbit anti-Anxa1 antibody (row d). Fluorescence signals were monitored under a fluorescence microscope up to 40 min post-injection. From left: bright field before injection, and fluorescence at 0, 5, 20 min after injection. Far right, the boundary of tumor and stroma at 20 min (Scale bar=500 μm). (B) Quantitative analysis of fluorescence during the course of the analysis shown in A. The line with the highest signal at 10 minutes represents IF&-A488. The line with the second highest signal at 10 minutes represents the control IgG. The line with the third highest signal at 10 minutes represents Anxa-1 antibody. The line with the lowest signal at 10 minutes represents RQ7-A488. Intensity of fluorescence was determined by Image J program. Error bars represent SD (n=3). Asterisks show statistical significance or p<0.0001, t test. (C) Fluorescence micrographs of tumor sections 20 min after injection with IF7-A488 and RQ7-A488. From left: IF7-A488, DAPI, merged, and bright field. […] Experiments were repeated 3 times, and representative results are shown. Arrows indicate fluorescence. (D) Fluorescence remained in circulation in mice with or without subcutaneous B16 tumors. IF7-A488 was injected intravenously through the tail vein, and fluorescence remaining in circulation was measured. Upper line represents “without tumor”, middle line represents “with 3 days tumor”, and bottom line represents “with 6 days tumor.” Error bars represent SD (n=3).
A Lewis lung carcinoma (LLC) tumor was produced in a donor nude mouse by subcutaneous injection, and small piece of tumor (less than 1 mm^3) was transplanted to a dorsal skinfold chamber in a recipient nude mouse (8-10 weeks female Balb/c nude) as described (Lehr et al., Am J Pathol 1993; 143:1055-62; Oh et al., Nat Biotechnol 2007; 25:327-37). Three days later, the mouse was anesthetized by peritoneal injection of 1.25% 2,2,2-Tribromoethanol ([…]). IF7-A488 or RQ7-A488 (100 μl; […] in 5% glucose solution) was injected through the tail vein. Intravital Alexa 488 signals in the tumor were detected and recorded by a Zeiss Axioplan fluorescence microscope and a digital camera system (DP70 and DP controller, Olympus). For inhibition assays, rabbit anti-Anxa1 antibody (H-65, Santa Cruz) or rabbit IgG (20 μg IgG) was injected 15 minutes prior to IF7-A488 injection. Signal intensity in the tumor from 0 min to 40 min was measured by Image J (NIH, Maryland). After 10 min, irradiation of specimens by a UV lamp was limited only to times when photos were taken to avoid fluorescence bleaching. The tumor was isolated from the dorsal skin folder chamber, fixed with 4% paraformaldehyde at room temperature for 15 min, immersed in O.C.T compound, and cryosections were made. Frozen sections were overlaid with Vectashield containing DAPI (Vector laboratories) and examined under a Zeiss Axioplan fluorescence microscope.

[10] = fluorescence remaining in circulation after intravenous injection; format: in vivo, mouse
Experimental: (A) Lewis lung carcinoma (LLC) tumors were allowed to vascularize for 3 days in dorsal skinfold chamber window in nude mice. Mice were injected with 100 μl of 50 μM IF7-A488 (row a) or RQ7-A488 (row b) in 5% glucose in water. IF7-A488 was also injected to tumor-bearing mice pre-injected with rabbit IgG (row c) or with rabbit anti-Anxa1 antibody (row d). Fluorescence signals were monitored under a fluorescence microscope up to 40 min post-injection. From left: bright field before injection, and fluorescence at 0, 5, 20 min after injection. Far right, the boundary of tumor and stroma at 20 min (Scale bar=500 μm). (B) Quantitative analysis of fluorescence during the course of the analysis shown in A. The line with the highest signal at 10 minutes represents IF&-A488. The line with the second highest signal at 10 minutes represents the control IgG. The line with the third highest signal at 10 minutes represents Anxa-1 antibody. The line with the lowest signal at 10 minutes represents RQ7-A488. Intensity of fluorescence was determined by Image J program. […] (C) Fluorescence micrographs of tumor sections 20 min after injection with IF7-A488 and RQ7-A488. […] Arrows indicate fluorescence. (D) Fluorescence remained in circulation in mice with or without subcutaneous B16 tumors. IF7-A488 was injected intravenously through the tail vein, and fluorescence remaining in circulation was measured. […]

[11] = 100 μl of 50 μM, tail vein, nude mice

## CC[C@H](C)[C@H](N)C(=O)N[C@@H](Cc1ccccc1)C(=O)N[C@@H](CC(C)C)C(=O)N[C@@H](CC(C)C)C(=O)N[C@@H](Cc1c[nH]c2ccccc12)C(=O)N[C@@H](CCC(N)=O)C(=O)N[C@@H](CCCNC(=N)N)C(=O)N[C@@H](CCCCN)C(=O)N[C@@H](CCCCN)C(=O)N[C@@H](CCCCN)C(=O)N[C@@H](CS)C(=O)O [IF7K3C] (H-IFLLWQRKKKC-OH; N-terminus and C-terminus assumed)
[1]
  Kd: 11 ± 6 µM

## CO[C@H]1/C=C\C=C(/C)C(=O)NC2=CC(=O)C(NCCCNC(=O)CCCN3C(=O)C=CC3=O)=C(C[C@@H](C)C[C@H](OC)[C@H](O)[C@@H](C)/C=C(\C)[C@@H]1OC(N)=O)C2=O [GA, 17-GMB-APA-GA, reference compound]
[2]
  apoptosis of perivascular tumor cells (TUNEL, histochemistry): rarely show apoptosis
[3]
  apoptosis of perivascular tumor cells (TUNEL): rarely show apoptosis
[4]
  apoptosis of perivascular tumor cells (TUNEL): rarely show apoptosis
[5]
  apoptosis of perivascular tumor cells (TUNEL): rarely show apoptosis

## RQ7C(RR)-SN38 (RQWLLFICRR; also: SN-38 conjugate, site not given here)
[6]
  blood cell counts: None of the parameters showed significant differences to the control
  blood chemistry: None of the parameters showed significant differences to the control
  body weights: None of the parameters showed significant differences to the control

## RQWLLFI (control peptide) [RQ7, reference compound]
[7]
  inhibition of fucosylated carbohydrate (LeA) binding to Anxa1: not by RQ7

## IF7-A488 (IFLLWQRC)
[8]
  binding to recombinant Anxa1-His6 protein in plate assay: binds to recombinant Anxa1-His6 protein
[9]; [11]
  time until fluorescence signals appeared in the tumor: within one minute
  time until tumor fluorescence reached a plateau: 9 min
[9]
  vascular staining in tumor tissue sections: vascular staining by IF7-A488; also recorded: detected on endothelial cells of tumor vasculature
[9]; IgG 15 minutes prior
  tumor targeting after prior injection of irrelevant rabbit IgG: did not inhibit IF7-A488 tumor targeting
[9]; antibody 15 minutes prior
  tumor fluorescence signals after prior injection of anti-Anxa1 antibody: significantly reduced
[9]; or until the experiment was terminated
  time tumor fluorescence remained high: 40 min
[10]; control mice without tumors
  fluorescence remaining in circulation, mice without tumors: remained in circulation after an initial surge
[10]; subcutaneous B16 tumors
  fluorescence remaining in circulation, B16-tumor-bearing mice: complete disappearance from the circulation

## RQ7-A488 (RQWLLFI; also: Alexa 488 conjugate, site not given here) [reference compound]
[8]
  binding to recombinant Anxa1-His6 protein in plate assay: did not bind to Anxa1
[9]; [11]
  tumor fluorescence signals: either not detectable or remained at background levels
[9]
  vascular staining in tumor tissue sections: not RQ7-A488; also recorded: no RQ7-A488 signal was detected
